Reference: ChEMBL document CHEMBL1201862, “PubChem BioAssay data set” (2004)
The source made the active and inactive calls.

Columns and labels:
[1] = target: Lysine-specific demethylase 4C (Homo sapiens, UniProt Q9H3R0); test: GASC-1 (JMJD2C) histone demethylase inhibitors, dose response, biochemical, DELFIA europium, cherry-picked samples (AID 488835); assay type: functional
cells [2] = test: cells
[3] = target: T1, Oxysterols receptor LXR-beta (Homo sapiens, UniProt P55055); assay type: functional, cell-based;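 also: Cell-based luminescence dose-response assay of agonist activity at LXR, run as a confirmatory counterscreen to a daf-12 agonist screen; HEK293 cells with Gal4-LXR fusion and GAL4-driven luciferase reporter; agonist potency from rising luciferase signal of a Gal4-LXR reporter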
T1 sequence (P55055 whole entry): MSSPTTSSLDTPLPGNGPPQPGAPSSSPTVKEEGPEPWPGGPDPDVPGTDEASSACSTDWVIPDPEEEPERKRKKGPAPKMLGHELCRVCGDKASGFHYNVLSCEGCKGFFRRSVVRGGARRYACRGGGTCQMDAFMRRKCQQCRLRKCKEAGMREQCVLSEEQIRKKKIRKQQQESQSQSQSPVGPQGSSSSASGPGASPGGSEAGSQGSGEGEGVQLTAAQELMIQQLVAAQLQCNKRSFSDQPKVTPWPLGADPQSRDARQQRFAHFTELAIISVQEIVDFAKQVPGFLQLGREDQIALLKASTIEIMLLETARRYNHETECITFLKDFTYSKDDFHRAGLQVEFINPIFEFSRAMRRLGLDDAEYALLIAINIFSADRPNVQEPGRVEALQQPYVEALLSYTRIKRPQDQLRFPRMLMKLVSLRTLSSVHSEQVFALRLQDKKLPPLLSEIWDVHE

[4] = target: T2, Intestinal-type alkaline phosphatase (Homo sapiens, UniProt P09923); test: Dose Response confirmation of uHTS hits from a small molecule inhibitors of human intestinal alkaline phosphatase via a luminescent assay. [Related pubchem assays (depositor defined):AID2544, AID2574]; assay type: functional
T2 sequence (P09923 whole entry): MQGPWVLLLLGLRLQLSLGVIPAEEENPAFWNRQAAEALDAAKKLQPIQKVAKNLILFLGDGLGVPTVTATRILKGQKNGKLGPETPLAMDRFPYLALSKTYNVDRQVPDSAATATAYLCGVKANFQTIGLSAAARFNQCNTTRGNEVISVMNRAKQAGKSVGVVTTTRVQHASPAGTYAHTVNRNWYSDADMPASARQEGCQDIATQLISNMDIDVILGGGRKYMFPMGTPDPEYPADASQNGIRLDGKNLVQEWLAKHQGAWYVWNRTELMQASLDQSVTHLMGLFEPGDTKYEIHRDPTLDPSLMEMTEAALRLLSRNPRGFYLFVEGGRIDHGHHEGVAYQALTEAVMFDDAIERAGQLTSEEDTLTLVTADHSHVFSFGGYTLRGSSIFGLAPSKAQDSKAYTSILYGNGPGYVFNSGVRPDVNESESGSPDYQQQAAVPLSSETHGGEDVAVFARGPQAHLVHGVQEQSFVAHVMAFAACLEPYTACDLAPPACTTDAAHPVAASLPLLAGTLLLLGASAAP

[5] = target: T2, Intestinal-type alkaline phosphatase; test: human intestinal alkaline phosphatase activators, dose response, biochemical, luminescence, uHTS hits (AID 463120); assay type: functional
HeLa = test: HeLa cell cytotoxicity, dose response, cytotoxicity control for MITF activator project, CellTiter-Glo luminescence, cherry-pick samples (AID 540259); assay type: functional, cell-based; details: Homo sapiens
[6] = target: Peroxisome proliferator-activated receptor gamma/Nuclear receptor coactivator 3 (Homo sapiens, UniProt P37231); test: (§1) TR-FRET dose response biochemical High Throughput Screening assay for agonists of the steroid receptor coactivator 3 (SRC-3) recruitment by the peroxisome proliferator-activated receptor gamma (PPAR gamma): non-selective agonists. [Related pubchem assays: 1301 (Confirmation screen.), 1048 (Primary screen.)]; assay type: functional
Chain of Peroxisome proliferator-activated receptor gamma/Nuclear receptor coactivator 3 (P37231 whole entry): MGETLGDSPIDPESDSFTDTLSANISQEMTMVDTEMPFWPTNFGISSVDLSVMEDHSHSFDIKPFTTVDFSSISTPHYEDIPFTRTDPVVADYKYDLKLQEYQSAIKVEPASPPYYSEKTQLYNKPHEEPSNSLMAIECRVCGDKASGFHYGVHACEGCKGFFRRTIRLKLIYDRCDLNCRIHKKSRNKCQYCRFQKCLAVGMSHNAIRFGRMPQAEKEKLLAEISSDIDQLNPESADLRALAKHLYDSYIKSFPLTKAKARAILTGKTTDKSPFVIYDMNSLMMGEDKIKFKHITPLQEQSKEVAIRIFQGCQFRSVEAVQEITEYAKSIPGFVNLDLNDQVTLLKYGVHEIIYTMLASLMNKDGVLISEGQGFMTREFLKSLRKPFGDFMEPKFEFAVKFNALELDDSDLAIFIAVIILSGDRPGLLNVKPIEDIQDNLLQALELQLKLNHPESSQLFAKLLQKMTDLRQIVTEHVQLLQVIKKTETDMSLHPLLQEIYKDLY
Chain of Peroxisome proliferator-activated receptor gamma/Nuclear receptor coactivator 3 (Q9Y6Q9 whole entry, further chain): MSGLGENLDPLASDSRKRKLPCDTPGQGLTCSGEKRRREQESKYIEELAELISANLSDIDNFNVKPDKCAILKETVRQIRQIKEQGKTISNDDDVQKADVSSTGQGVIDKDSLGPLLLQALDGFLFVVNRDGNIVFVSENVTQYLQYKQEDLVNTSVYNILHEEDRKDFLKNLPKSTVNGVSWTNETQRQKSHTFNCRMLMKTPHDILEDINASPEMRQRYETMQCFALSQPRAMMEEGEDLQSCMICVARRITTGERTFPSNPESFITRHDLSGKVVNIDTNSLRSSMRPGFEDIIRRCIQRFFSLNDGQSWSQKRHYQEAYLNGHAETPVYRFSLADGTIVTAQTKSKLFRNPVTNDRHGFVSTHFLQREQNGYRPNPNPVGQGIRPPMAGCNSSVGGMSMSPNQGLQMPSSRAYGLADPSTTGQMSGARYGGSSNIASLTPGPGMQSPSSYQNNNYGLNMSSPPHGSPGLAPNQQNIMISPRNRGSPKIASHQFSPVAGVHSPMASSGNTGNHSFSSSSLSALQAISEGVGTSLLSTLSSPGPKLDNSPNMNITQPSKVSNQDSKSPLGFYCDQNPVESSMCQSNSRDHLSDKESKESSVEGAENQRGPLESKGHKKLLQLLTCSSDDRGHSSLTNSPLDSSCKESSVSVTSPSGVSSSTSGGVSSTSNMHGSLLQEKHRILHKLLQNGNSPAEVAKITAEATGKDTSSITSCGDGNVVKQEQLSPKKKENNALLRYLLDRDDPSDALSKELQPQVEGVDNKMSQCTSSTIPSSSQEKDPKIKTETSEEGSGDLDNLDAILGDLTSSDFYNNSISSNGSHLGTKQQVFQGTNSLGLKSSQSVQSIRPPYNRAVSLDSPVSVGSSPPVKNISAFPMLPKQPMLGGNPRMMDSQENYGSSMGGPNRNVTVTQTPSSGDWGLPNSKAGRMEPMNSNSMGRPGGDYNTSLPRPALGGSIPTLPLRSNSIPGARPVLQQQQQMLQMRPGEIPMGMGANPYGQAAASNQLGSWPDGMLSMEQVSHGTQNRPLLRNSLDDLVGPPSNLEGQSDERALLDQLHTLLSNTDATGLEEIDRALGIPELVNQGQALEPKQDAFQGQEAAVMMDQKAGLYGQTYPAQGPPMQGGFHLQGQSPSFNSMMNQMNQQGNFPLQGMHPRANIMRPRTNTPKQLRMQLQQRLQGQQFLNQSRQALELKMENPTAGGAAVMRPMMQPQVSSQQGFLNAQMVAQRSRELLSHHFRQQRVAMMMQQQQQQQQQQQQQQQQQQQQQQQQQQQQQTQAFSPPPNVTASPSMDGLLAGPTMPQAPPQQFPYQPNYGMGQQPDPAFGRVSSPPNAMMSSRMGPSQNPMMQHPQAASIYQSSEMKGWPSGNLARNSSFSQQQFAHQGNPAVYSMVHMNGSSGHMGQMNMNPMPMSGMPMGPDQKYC

[7] = target: Peroxisome proliferator-activated receptor gamma/Nuclear receptor coactivator 1 (Homo sapiens, UniProt P37231); test: as §1, with “1 (SRC-1)” for “3 (SRC-3)”, “assays (depositor defined):AID1300, AID1808, AID504735, AID631]” for “assays: 1301 (Confirmation screen.), 1048 (Primary screen.)]”; assay type: protein assay
[8] = target: Peroxisome proliferator-activated receptor gamma/Nuclear receptor coactivator 2 (Homo sapiens, UniProt P37231); test: TR-FRET dose response biochemical High Throughput Screening assay for agonists of the steroid receptor coactivator 2 (SRC-2) recruitment by the peroxisome proliferator-activated receptor gamma (PPAR gamma): non-selective agonists. [Related pubchem assays: 1297, 1032 ]; assay type: functional
[9] = target: Nucleotide-binding oligomerization domain-containing protein 2 (Homo sapiens, UniProt Q9HC29); test: NOD2 signaling inhibitors, cell-based, luminescence, uHTS, HEK293 (AID 1566); assay type: functional
Chain of Nucleotide-binding oligomerization domain-containing protein 2 (Q9HC29 whole entry, the tested form may be a part): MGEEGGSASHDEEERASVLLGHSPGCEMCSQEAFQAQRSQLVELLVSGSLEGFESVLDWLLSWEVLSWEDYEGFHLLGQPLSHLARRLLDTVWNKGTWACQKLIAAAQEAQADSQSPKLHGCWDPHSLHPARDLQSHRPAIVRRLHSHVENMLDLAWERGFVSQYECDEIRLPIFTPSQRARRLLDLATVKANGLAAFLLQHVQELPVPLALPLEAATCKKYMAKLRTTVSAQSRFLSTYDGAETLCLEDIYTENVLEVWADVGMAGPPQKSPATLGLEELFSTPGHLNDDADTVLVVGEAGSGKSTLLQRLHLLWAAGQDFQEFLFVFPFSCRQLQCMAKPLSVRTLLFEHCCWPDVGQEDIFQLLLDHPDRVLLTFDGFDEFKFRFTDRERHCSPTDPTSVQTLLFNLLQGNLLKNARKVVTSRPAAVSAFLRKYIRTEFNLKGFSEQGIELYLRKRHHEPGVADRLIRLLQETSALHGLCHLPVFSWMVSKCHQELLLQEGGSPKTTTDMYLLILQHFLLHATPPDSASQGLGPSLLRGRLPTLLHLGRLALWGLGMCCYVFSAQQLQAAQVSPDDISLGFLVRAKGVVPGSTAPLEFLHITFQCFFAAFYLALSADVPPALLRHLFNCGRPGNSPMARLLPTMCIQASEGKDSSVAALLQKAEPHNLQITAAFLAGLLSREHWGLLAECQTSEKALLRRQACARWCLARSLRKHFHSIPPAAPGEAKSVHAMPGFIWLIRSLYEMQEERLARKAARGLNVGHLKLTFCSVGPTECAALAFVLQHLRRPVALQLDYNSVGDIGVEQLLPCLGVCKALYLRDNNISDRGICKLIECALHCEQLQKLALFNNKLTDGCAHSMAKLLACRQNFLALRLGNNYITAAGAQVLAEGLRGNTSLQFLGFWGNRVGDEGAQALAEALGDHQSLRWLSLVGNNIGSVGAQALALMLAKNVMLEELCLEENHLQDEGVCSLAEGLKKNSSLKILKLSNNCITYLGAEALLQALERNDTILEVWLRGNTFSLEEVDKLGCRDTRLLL

[10] = target: T3, Serine/threonine-protein phosphatase (Candida dubliniensis (strain CD36 / CBS 7987 / NCPF 3949 / NRRLY-17841) (Yeast), UniProt B9W6M3); test: calcineurin pathway inhibitors in yeast reporter, dose response, S. cerevisiae, CDRE-lacZ, luminescence, secondary (AID 2388); assay type: functional, cell-based;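 also: yeast reporter cells carrying a calcineurin-responsive lacZ construct stimulated with calcium chloride; luminescent beta-galactosidase reporter signal in whole cells rather than isolated phosphatase activity; potency for inhibition where a drop in reporter signal means calcineurin blockade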
T3 sequence (B9W6M3 whole entry): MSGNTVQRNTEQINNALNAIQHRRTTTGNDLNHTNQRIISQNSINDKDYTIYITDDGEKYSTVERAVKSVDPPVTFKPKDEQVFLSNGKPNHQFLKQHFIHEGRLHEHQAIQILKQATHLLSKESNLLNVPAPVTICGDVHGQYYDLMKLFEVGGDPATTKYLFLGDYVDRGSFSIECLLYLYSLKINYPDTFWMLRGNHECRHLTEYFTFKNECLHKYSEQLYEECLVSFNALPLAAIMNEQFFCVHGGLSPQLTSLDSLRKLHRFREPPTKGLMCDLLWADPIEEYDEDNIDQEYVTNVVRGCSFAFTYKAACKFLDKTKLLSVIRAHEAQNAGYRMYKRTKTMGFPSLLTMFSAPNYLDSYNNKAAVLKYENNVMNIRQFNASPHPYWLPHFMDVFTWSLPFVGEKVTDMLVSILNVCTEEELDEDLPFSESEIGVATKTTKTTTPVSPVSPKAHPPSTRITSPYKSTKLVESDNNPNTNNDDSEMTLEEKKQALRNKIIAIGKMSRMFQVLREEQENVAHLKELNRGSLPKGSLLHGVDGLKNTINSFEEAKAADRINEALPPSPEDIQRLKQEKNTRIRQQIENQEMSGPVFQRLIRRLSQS

[11] = cytotoxicity toward DRD oncogenic fibroblasts, dose response, cell-based, non-viral oncogenic, luminescence (AID 1934); assay type: functional; details: Homo sapiens
HEK293 [12] = test: cells; assay type: functional, cell-based; details: Homo sapiens
[13] = growth suppression of PTEN-null colon cells, dose response, cell-based, HCT116 PTEN knockout (AID 1047); assay type: functional;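 also: HCT116 colon tumor cells with PTEN knocked out; cells exposed to compound for 60 hours before readout; potency for loss of cell viability measured by luminescence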
HEK293 [14] = test: cells; assay type: functional, cell-based; details: Homo sapiens; remark: listed apart in the source
BJ [15] = test: cytotoxicity toward BJ-TERT-LT-ST fibroblasts, dose response, cell-based, RAS-independent, luminescence (AID 1935); assay type: functional; details: Homo sapiens;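 also: BJ fibroblasts immortalized with TERT plus LT and ST oncogenes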
INS1 = test: beta cell apoptosis inhibitors, cytokine rescue, dose response, luminescence, retest (AID 449756); assay type: functional, cell-based; details: Rattus norvegicus;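 also: cell death triggered by IL-1 beta plus TNF-alpha plus IFN-gamma mixture; protective hits raise ATP signal compared with cytokine alone wells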
BJ [16] = test: cytotoxicity toward BJ-TERT fibroblasts, dose response, cell-based, RAS-independent, luminescence (AID 1933); assay type: functional; details: Homo sapiens
[17] = C. albicans growth with fluconazole, confirmation, fluorescence, retest (AID 2467); assay type: functional, cell-based
[18] = inhibitors of firefly luciferase expression or activity, dose response, H4 neuroglioma cells, luminescence (AID 1990); assay type: functional, cell-based
[19] = ZM109 Env clade C HIV-1 fusion inhibitors, dose response, HeLa effector, CEM target cells, luciferase, cherry-pick (AID 652058); assay type: functional, cell-based
[20] = cytotoxicity in HEK-293T NF-kB-Luc cells, dose response, cytotoxicity control for B/T-cell NF-kB inhibitor project, cell-based, uHTS hits (AID 489019); assay type: functional;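 also: IC50 reflects cytotoxicity as loss of cell viability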
[21] = growth suppression of beta-catenin-knockout colon cells, dose response, cell-based, HCT116, human colon tumor (AID 1045); assay type: functional;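 also: HCT116 colon tumor cells with beta catenin knocked out; cells exposed to compound for 60 hours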
HEK293 [22] = test: NOD2 signaling inhibitors in MDP-stimulated cells, cell-based, uHTS, luminescence (AID 2001); assay type: functional; details: Homo sapiens
[23] = inhibitors of SNCA 5'UTR-driven reporter translation, confirmation, H4 neuroglioma cells, luminescence (AID 1988); assay type: functional, cell-based
[24] = inhibitors of clade B AD8 Env fusion, dose response, cell-based, cherry-pick (AID 652062); assay type: functional;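 also: luciferase signal from cell-cell fusion driven by HIV-1 clade B AD8 Env; potency is for inhibitors of fusion seen as a drop in luminescence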
[25] = NIH-3T3 fibroblast cytotoxicity, dose response, cytotoxicity control, cell-based, fluorescence, Alamar Blue, secondary assay (AID 2327); assay type: functional;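 also: NIH-3T3 mouse fibroblasts cultured with fluconazole at 8 µg/mL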
HEK293 [26] = test: cells; assay type: functional, cell-based; details: Homo sapiens; remark: listed apart in the source
[27] = HepG2 cell cytotoxicity, dose response, cytotoxicity control for non-replicating M. tuberculosis project (AID 489018); assay type: functional; details: Mycobacterium tuberculosis
[28] = Vero E6 cell cytotoxicity, dose response, cytotoxicity control for non-replicating M. tuberculosis project, secondary assay (AID 492998); assay type: functional, VeroE6; details: Vero C1008
HEK293 [29] = test: NOD1 signaling inhibitors, primary screen, cell-based, luminescence, uHTS (AID 1578); assay type: functional; details: Homo sapiens
[30] = target: ATP-dependent molecular chaperone HSP82 (Candida albicans (strain WO-1) (Yeast), UniProt C4YTQ8); test: loss of DOC-induced GRE-beta-galactosidase reporter signal, dose response, Hsp90 inhibitor project, S. cerevisiae, luminescence (AID 2400); assay type: functional, cell-based;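 also: beta-galactosidase luminescence from glucocorticoid response element reporter as proxy for Hsp90 function; inhibitor potency where signal loss means Hsp90 inhibition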
Chain of ATP-dependent molecular chaperone HSP82 (C4YTQ8 whole entry): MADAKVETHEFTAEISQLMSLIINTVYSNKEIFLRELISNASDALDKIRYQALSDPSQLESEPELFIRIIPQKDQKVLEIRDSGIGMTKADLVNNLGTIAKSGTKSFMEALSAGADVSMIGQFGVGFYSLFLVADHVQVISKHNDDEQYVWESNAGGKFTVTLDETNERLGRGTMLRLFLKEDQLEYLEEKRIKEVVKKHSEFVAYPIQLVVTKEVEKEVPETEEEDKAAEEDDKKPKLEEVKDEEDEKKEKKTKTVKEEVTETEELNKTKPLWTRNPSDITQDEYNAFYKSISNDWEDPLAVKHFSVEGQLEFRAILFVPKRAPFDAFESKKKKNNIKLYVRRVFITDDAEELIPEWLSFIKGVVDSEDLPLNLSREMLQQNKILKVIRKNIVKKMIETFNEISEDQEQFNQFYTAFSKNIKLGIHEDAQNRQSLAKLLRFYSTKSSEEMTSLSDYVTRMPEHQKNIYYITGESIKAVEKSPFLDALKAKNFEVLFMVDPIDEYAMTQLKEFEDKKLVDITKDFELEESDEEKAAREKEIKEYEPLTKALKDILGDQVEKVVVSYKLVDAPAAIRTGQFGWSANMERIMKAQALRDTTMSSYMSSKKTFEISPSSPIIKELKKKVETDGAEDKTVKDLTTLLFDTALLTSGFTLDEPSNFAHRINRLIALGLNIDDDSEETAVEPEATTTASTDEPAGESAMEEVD

cells [31] = assay type: functional
Protein Rev = Protein Rev (Human immunodeficiency virus type 1 group M subtype B (isolate WMJ22)(HIV-1), UniProt P05866); test: HIV-1 Rev-RRE RNA binding disruptors, dose response, biochemical, protein-RNA interaction (AID 842); design: species or system Human immunodeficiency virus 1
Chain of Protein Rev (P05866 whole entry): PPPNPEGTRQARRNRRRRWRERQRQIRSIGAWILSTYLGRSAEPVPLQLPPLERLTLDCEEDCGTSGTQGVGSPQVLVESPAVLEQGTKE

BJ [32] = test: cells; assay type: functional, cell-based; details: Homo sapiens
Jurkat = test: antigen receptor-induced NF-kB inhibitors, dose response, Jurkat, luciferase reporter, luminescence, B- and T-cell (AID 489004); assay type: functional, cell-based; details: Homo sapiens;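 also: NF-kB luciferase reporter Jurkat cells stimulated with PMA plus ionomycin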
[33] = THP-1 cell cytotoxicity, dose response, cytotoxicity control for non-replicating M. tuberculosis project (AID 489025); assay type: functional
BJ [34] = test: cytotoxicity toward Ras-transformed BJeLR fibroblasts, dose response, cell-based, alamar blue fluorescence, cherrypicked samples (AID 2631); assay type: functional; details: Homo sapiens;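 also: confirmatory dose-response assay in RAS-dependent BJ fibroblasts engineered with TERT, LT and ST, with cytotoxicity read by fluorescence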
[35] = Luminescence Cell-Based Dose Response HTS to Identify Inhibitors of 5'UTR Stem-Loop Driven Prion Protein mRNA Translation in H4 Neuroglioblastoma Cells. [Related pubchem assays: 1827 (Project Summary), 1813 (Primary HTS)]; assay type: functional
[36] = CEM21 lymphoblast cell cytotoxicity, dose response, cytotoxicity control for viral fusion inhibitor project, CellTiter-Glo luminescence, cherry-picked (AID 652042); assay type: functional, cell-based;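 also: potency for signal decrease meaning cytotoxicity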
[37] = inhibitors of HIV Env-driven cell fusion, dose response, cherry-pick (AID 652057); assay type: functional, cell-based

Nc1cccc(C(=O)Nc2ccco2)c1
AC50 [1]: 27.5 µM (active)

NC(=O)c1c(NC(=O)c2ccc(F)cc2)sc2c1CCC2
EC50 (cells [2]): > 67.5 µM (inactive)
EC50 [3]: > 67.5 µM (inactive)
IC50 [4]: > 100 µM (inactive)
EC50 [5]: > 100 µM (inactive)

Brc1csc(/C=N/Nc2nc3ccccc3s2)c1
AC50 (HeLa): 46 µM (active)

Sc1nc(-c2ccc(Cl)cc2)cs1
EC50 [6]: > 79.4 µM (not active)
EC50 [7]: 12 µM (inactive)
EC50 [8]: 21.8 µM (not active)

COc1ccc(/C=C/c2cc(-c3ccc(C)cc3)o[n+]2C)cc1
EC50 [9]: 8.29 µM (active)
EC50 [10]: > 180 µM (inactive)
EC50 [11]: 5.02 µM (active)
IC50 (HEK293 [12]): 5.25 µM (active)
EC50 [13]: 0.778 µM (active)
IC50 (HEK293 [14]): > 20 µM (inactive)
EC50 (BJ [15]): 4.41 µM (inconclusive)
AC50 (INS1): 0.76 µM (active)
EC50 (BJ [16]): 0.601 µM (inconclusive)
EC50 [17]: 0.576 µM (active)
EC50 [18]: 0.894 µM (active)
AC50 [19]: 3.33 µM (active)
IC50 [20]: > 80 µM (inactive)
EC50 [21]: 0.733 µM (active)
IC50 (HEK293 [22]): 8.34 µM (active)
EC50 [23]: 2.27 µM (active)
AC50 [24]: 7.88 µM (active)
EC50 [25]: > 160 µM (inactive)
IC50 (HEK293 [26]): 13.2 µM (active)
CC50 [27]: 9.8 µM (active)
CC50 [28]: > 20 µM (active)
EC50 (HEK293 [29]): 9.15 µM (active)
EC50 [30]: > 160 µM (inactive)
IC50 (cells [31]): 5.99 µM (active)
IC50 (Protein Rev): > 79.4 µM (not active)
EC50 (BJ [32]): 1.87 µM (inconclusive)
IC50 (Jurkat): 3.13 µM (active)
CC50 [33]: 2.38 µM (active)
EC50 (BJ [34]): 3.43 µM (active)
EC50 [35]: 12.2 µM (active)
AC50 [36]: 4.21 µM (active)
AC50 [37]: 6.83 µM (active)
